Measurements as given in patent US5804592A, “Method for improving disturbed behavior and elevating mood in humans” (Unimed Pharmaceuticals, Inc., priority 1997, dated 1998).
“Also recorded” adds a separate entry of the source.

Legend:
[1] = Double blind placebo-controlled crossover study: Cohen-Mansfield Agitation Inventory (CMAI), disturbed behavior; assay type: in vivo, human
Text: (§1) Each patient in the this example was diagnosed with "probable" DAT by a neurologist according to DSM III-R and NINCDS-ARDDA criteria. These generally accepted criteria include deficits in two or more areas of cognition, progressive worsening of memory and other cognitive functions, no disturbances of consciousness, and absence of systemic disorders or other brain disease that in and of themselves could account for the progressive deficits in memory and cognition. (McKhann et al., Neurology, 34: 939-944 (1984). Each patient received physical examination and laboratory examination including complete blood count with differential, liver function tests, thyroid function tests including TSH, iron binding capacity, BUN, creatinine, and electrolytes.
(§2) Eleven of the patients were on a psychoactive medication before the beginning of dronabinol study and were maintained on the same medication during the study period. Four patients were receiving regular doses of neuroleptics (perphenazine, thiothixene, haloperidol or thioridazine), 4 patients were receiving regular doses of benzodiazepienes (3 lorazepam and one alprazolam), and 8 patients were receiving regular doses of antidepressants. The antidepressants included sertraline (8 patients), trazodone (4 patients) and desipramine (1 patient). Three patients were on both sertraline and trazodone, and one patient was switched from trazodone to doxepin. Antidepressant treatment was initiated at least 4 weeks before the start of the study and the mean duration of antidepressant treatment before study initiation was 7 months. Eleven patients had orders for psychoactive medications as needed (PRN). These included lorazepam in 4 patients and alprazolam, trazodone, doxepin, haloperidol, perphenazine and thioridazine in one patient each. The patients received these medications very rarely, on the average 9.7 doses/6 weeks during the placebo administration and 7.2 doses/6 weeks during dronabinol treatment.
(§3) A double blind placebo-controlled crossover design was used with each period of study lasting six weeks. Dronabinol or placebo was administered on a fixed dose schedule, 2.5 mg capsule or identically looking placebo capsule every morning and noon. Subjects were randomly assigned to placebo first or dronabinol first groups. Possible side effects were determined every week by asking the primary caregivers if the patient experienced any of a list of possible symptoms. A list of these symptoms observed in twelve patients over seventy weeks is identified in Table 2 below.
(§4) Baseline measurements were taken the week prior to randomization and treatment initiation. Behavior measures were obtained weekly for the 12 week duration of the trial. Repeated measures on these variables were therefore available for six weeks on dronabinol and six weeks on placebo for each subject.
The disturbed behavior was measured by the Cohen-Mansfield Agitation Inventory (CMAI)(Cohen-Mansfieldet al., J. Gerontol. Med. Sci., 44: M77-84 (1989)) which is a widely used instrument with good psychometric properties. Twenty nine items of this inventory are rated by frequency (from 1=never to 7=constantly or almost constantly) and by disruptiveness (from 1=not at all to 5=extremely). For each observation period, the total score was calculated by multiplying the frequency and disruptiveness of individual items and adding the products. The CMAI items observed are identified in Table 3 below.
(§5) Statistical analysis was performed using Statistix 4.1 (Analytic Software). Repeated measures ANOVA for the 12 weeks of the study was done to test for effects of order, time and treatment on-study variables.

[2] = Double blind placebo-controlled crossover study: Lawton Observed Affect Scale - Past (negative and positive affect); assay type: in vivo, human
Text: as §1, §3, §4
Patients' affect was measured using Lawton Observed Affect Scale - Past (Lawton et al., J. Gerontol. [B], 51B: P3-14 (1996)). This scale consists of six items, three measuring positive affect (pleasure, interest and contentment) and three measuring negative affect (anger, anxiety/fear and depression/sadness) on a 5 point scale (from 1=never to 5=more than 3 time a day). The negative and positive affect scores were calculated by adding scores of the appropriate items.
as §5

[3] = Possible side effects determined every week by asking the primary caregivers (Table 2); assay type: in vivo, human
Text: as §1, §3

[4] = Use of as needed (PRN) psychoactive medication during the study; assay type: in vivo, human; details: during dronabinol treatment; placebo administration 9.7
Text: as §2, with “The patients received these medications very rarely, on the average 9.7 doses/6 weeks during the placebo administration and 7.2 doses/6 weeks during dronabinol treatment.” left out
A double blind placebo-controlled crossover design was used with each period of study lasting six weeks. […] Possible side effects were determined every week by asking the primary caregivers if the patient experienced any of a list of possible symptoms. […]

[5] = AIDS patients, after dronabinol treatment; Gorter 1991, Beal 1995; cited from earlier work
[6] = four compartment model; Agurell et al. 1986; cited from earlier work
[7] = cited from earlier work
[8] = repeated measures ANOVA, df=1,143
[9] = repeated measures ANOVA, df=5,143, dronabinol/placebo crossover
[10] = decrease during the 12 weeks study period (both phases), df=5,143
[11] = dronabinol first vs placebo first, df=5,143
[12] = repeated measures ANOVA, df=5,143
[13] = 12 patients, 2.5 mg capsule every morning and noon, six weeks
[14] = seventy weeks observed, 2.5 mg capsule every morning and noon

For CCCCCc1cc(O)c2c(c1)OC(C)(C)[C@@H]1CCC(C)=C[C@@H]21 (relative stereo) [dronabinol, (6aR-trans)-6a,7,8,10a-tetrahydro-6,6,9-trimethyl-3-pentyl-6H-dibenzo[b,d]pyran-1-ol], the “Disturbed behavior (CMAI score), change” value ([1]; during dronabinol treatment, 2.5 mg morning and noon, six weeks) was “Disturbed behavior decreased during dronabinol treatment”, the “Disturbed behavior (CMAI), persistence of decrease” value ([1]; placebo period following treatment with dronabinol) was “this decrease in disturbed behavior persisted during the placebo period following treatment with dronabinol; also recorded: carried over to the following placebo period” and the “CMAI score, F(order×treatment)” value [1, 8] was 2.78. For the same compound, the “CMAI score, p for F(order×treatment)” value [1, 8] was 0.12, the “CMAI score as percentage of the baseline, F(order×time)” value [1, 9] was 2.35 and the “CMAI score as percentage of the baseline, p for order×time interaction” value [1, 9] was 0.05. The “Disturbed behavior, difference in the second treatment period” value ([1]; second treatment period of crossover) was “no difference in the disturbed behavior in the second treatment period”, the “Agitation (CMAI and Observed Affect Scale), change” value ([1]; two scales: CMAI and Observed Affect Scale) was “Decreased agitation” and the “Negative affect score, F(time)” value [2, 10] was 2.46. The “Negative affect score, p for F(time)” value [2, 10] was 0.045, the “Positive affect score, change” value ([2]; dronabinol and placebo treatments, six weeks each) was “positive affect remained similar during both treatments; also recorded: did not change the Positive Affect” and the “Negative affect score, decrease by order of treatment” value ([2]; dronabinol first vs placebo first) was “the decrease was greater for those who received dronabinol first, compared to those who received placebo first”. For the same compound, the “Negative affect score, F(order×time)” value [2, 11] was 5.45, the “Negative affect score, p for F(order×time)” value [2, 11] was under 0.0005 and the “Negative affect score, change vs placebo periods” value ([2]; on dronabinol vs placebo periods) was “decreased more while patients were on dronabinol then during the placebo periods”. The “Negative affect score, F(time×treatment)” value [2, 12] was 3.98, the “Negative affect score, p for F(time×treatment)” value [2, 12] was 0.004 and the “Anxiety/nervousness, percentage of total patients” value [3, 13] was 92%. The “Ataxia, percentage of total patients” value [3, 13] was 16%, the “Depression, percentage of total patients” value [3, 13] was 16% and the “Diarrhea, percentage of total patients” value [3, 13] was 16%. For the same compound, the “Emotional lability, percentage of total patients” value [3, 13] was 92%, the “Euphoria, percentage of total patients” value [3, 13] was 58% and the “Flushing, percentage of total patients” value [3, 13] was 8%. The “Hallucination, percentage of total patients” value [3, 13] was 33%, the “Headache, percentage of total patients” value [3, 13] was 8% and the “Increased confusion, percentage of total patients” value [3, 13] was 8%. The “Muscle pain, percentage of total patients” value [3, 13] was 16%, the “Paranoid reaction, percentage of total patients” value [3, 13] was 33% and the “Somnolence, percentage of total patients” value [3, 13] was 67%. For the same compound, the “Sweating, percentage of total patients” value [3, 13] was 8%, the “Tiredness, percentage of total patients” value [3, 13] was 75% and the Incidence of seizure ([3]; dronabinol treated patient) was “one”. The “Euphoria as an adverse reaction, frequency vs placebo” value ([3]; dronabinol treatment vs placebo periods) was “reported more frequently and in more patients during the dronabinol treatment than during placebo periods”, the “Somnolence, frequency vs placebo” value ([3]; patients treated with dronabinol vs patients on placebo) was “twice as common” and the “Anxiety/nervousness, percentage of weeks” value [3, 14] was 53%. The “Ataxia, percentage of weeks” value [3, 14] was 8%, the “Depression, percentage of weeks” value [3, 14] was 6% and the “Diarrhea, percentage of weeks” value [3, 14] was 4%. For the same compound, the “Emotional lability, percentage of weeks” value [3, 14] was 46%, the “Euphoria, percentage of weeks” value [3, 14] was 44% and the “Flushing, percentage of weeks” value [3, 14] was 3%. For the same compound, the “Hallucination, percentage of weeks” value [3, 14] was 16%, the “Headache, percentage of weeks” value [3, 14] was 1% and the “Increased confusion, percentage of weeks” value [3, 14] was 3%. For the same compound, the “Muscle pain, percentage of weeks” value [3, 14] was 10%, the “Paranoid reaction, percentage of weeks” value [3, 14] was 23% and the “Somnolence, percentage of weeks” value [3, 14] was 41%. For the same compound, the “Sweating, percentage of weeks” value [3, 14] was 3%, the “Tiredness, percentage of weeks” value [3, 14] was 36% and the “PRN psychoactive medication doses, average” value [4] was 7.2 doses/6 weeks. The “Mood / sense of well-being” value [5] was “elevated mood or sense of well-being”, the Initial half-life [6] was “four” and the Terminal half-life [6] was 25 to 36 h. For the same compound, the “Low levels of dronabinol metabolites detected in urine and feces, time” value ([7]; after initiation of a supervised abstinence, Dackis et al. 1982) was 2-5 weeks and the “Presence of tetrahydrocannabinol metabolites in the urine, time after ingestion” value ([7]; urine, after ingestion of marijuana, Ellis et al. 1985) was at most 77 days.
